What all share (format): in vivo, CD2F1 mice
For assay [1], the system named is C-26 tumor-bearing mice. Description: Survival and body weight comparison of HDAC inhibitors, C-26 model. The following applies: day 21, 50 mg/kg every other day orally from day 6. The method, then: (§1) In one aspect, tumors were established by subcutaneous injection of C-26 cells (0.5×10^6 cells in 0.1 ml) into the right flank of male CD2F1 mice (approximately 6 weeks of age; Harlan Laboratories, Indianapolis, Ind.)(11). Tumor-bearing mice, as well as tumor-free mice serving as non-cachectic controls, were randomized into groups that were treated with either AR-42 (50 mg/kg, p.o. by gavage, every other day; Arno Therapeutics, Inc., Flemington, N.J.) or vehicle (0.5% methylcellulose (w/v) and 0.1% Tween-80 (v/v) in sterile water) starting 6 days after cell injection. To investigate the effect of delayed treatment, treatments with drug and/or vehicle were started 6, 10 and 12 days after cancer cell injection.
In another aspect, the effects of AR-42 were compared to other HDAC inhibitors. […]
The effects of AR-42 were compared to other HDAC inhibitors (i.e., vorinostat and romidepsin) in C-26 tumor-bearing mice. Starting on day 6 after tumor cell injection, mice were treated continuously with AR-42 (50 mg/kg every other day, orally), vorinostat [50 mg/kg once daily, orally (13)], romidepsin [0.6 mg/kg twice weekly, i.p. (14)], or vehicle, until weight loss, as determined by daily body weight measurements and subtraction of tumor mass, reached 20% of starting weight. […]

The next assay has as its system IL-6. The assay can be described thus: Serum cytokine profiling, C-26 model: IL-6. The following applies: C-26 tumor-bearing mice, day 17; tumor-bearing/vehicle 230±105, tumor-free/vehicle 2.9±1.3. The source says: (§2) Gastrocnemius muscles and sera were collected at day 17 post-cell injection from each treatment group (n=8/group). Muscle was submitted to Metabolon, Inc. (Durham, N.C.) for metabolomic analysis of 270 metabolic intermediates via proprietary mass spectrometry platforms. Serum was submitted to Eve Technologies (Alberta, Canada) for analysis of 32 cytokines using a mouse cytokine array (32-plex panel).
(§3) To shed light onto the mechanism by which AR-42 mediated its anti-cachectic effect, sera and gastrocnemius muscle from vehicle- or AR-42-treated tumor-free and C-26 tumor-bearing mice were used for cytokine profiling analysis and whole transcriptome shotgun sequencing (RNA-seq), respectively.

The subject of assay [2] is leukemia inhibitory factor (LIF). The assay can be described thus: Serum cytokine profiling, C-26 model: LIF. The following applies: C-26 tumor-bearing mice, day 17; tumor-bearing/vehicle 19.7±9.3, tumor-free/vehicle 1.7±1.5.
Description: as §2, §3

Assay [3] relates to C-26 tumor-bearing mice. The assay can be described thus: C-26 colon adenocarcinoma model of cancer cachexia (body, muscle and tissue weights, tumor growth, food intake). The method, then: as §1
In another aspect, subcutaneous tumors were established in male C57BL/6 mice (approximately 6 weeks of age; Harlan) by injection of 0.5×10^6 LLC cells into the right flank. Treatment with AR-42 and vehicle was performed as for the C-26 model beginning 6 days after cell injection. In both models, body weights and food consumption were monitored daily and tumor size was measured no less than every two days. Mice were fasted for 2 hours prior to sacrifice, at which time, hind limb muscles, heart, spleen, epididymal fat, and blood were collected and the weights of the solid tissues were measured. Muscle samples were frozen in liquid nitrogen-chilled 2-methylbutane and then stored at −80° C. until analysis.
In one aspect, mice were treated orally by gavage with AR-42 (50 mg/kg) or vehicle every other day starting 6 days after injection C-26 cells, when palpable tumors had formed. […] By the study endpoint (day 15), the magnitude of the weight loss, after deducting the mass of the tumors (1 cm^3 volume=1 gram mass), reached >20% for the vehicle-treated group, and 6% for AR-42-treated mice (center). […] The AR-42-treated mice, despite their large tumor burden, were alert, responsive, active, and lacked the hunched posture and rough haircoat observed in vehicle-treated counterparts by the end point of this study (FIG. 1B).
CD2F1 and C57BL/6 mice were group-housed under conditions of constant photoperiod (12-hour light/12-hour dark), temperature and humidity with ad libitum access to water and standard diet. Mice were briefly anesthetized (isoflurane, 3-4%) during administration of drugs (AR-42, vorinostat, vehicle) by oral gavage. Food consumption was estimated by weighing food in each cage daily and dividing the daily decrease in food by the number of mice in the cage. Tumor volumes were calculated from caliper measurements using a standard formula (length×width^2×π/6).

Assay [4] has as its system C-26 tumor-bearing mice. The assay can be described thus: Delayed treatment in the C-26 model (body weight, tumor growth). The method, then: as §1
In those experiments, treatment was initiated early in the progression of cachexia when overt signs of wasting were undetectable. To investigate whether later initiation of AR-42 treatment remains protective against cachexia, C-26 tumor-bearing mice were treated with AR-42 (50 mg/kg, p.o., every other day) starting at 6, 10 and 12 days after tumor cell injection.

In assay [5] the test system is gastrocnemius muscles of C-26 tumor-bearing mice. The assay can be described thus: Metabolomic profiling of gastrocnemius muscle, C-26 model. The following applies: day 17, C-26 tumor-bearing mice.
Description: as §2
With cachexia, skeletal muscles undergo complex metabolic changes in response to tumor/host-derived inflammatory and neuroendocrine stressors (1). Accordingly, we conducted metabolic profiling analysis to investigate the effect of AR-42 on cachexia-induced shifts in metabolic phenotype in skeletal muscle. Tumor-free and C-26 tumor-bearing mice were treated with vehicle or AR-42 as aforementioned, and gastrocnemius muscles were collected at day 17 for metabolomic analysis.

Setting [6] is: 50 mg/kg p.o. every other day, vehicle 19%.

`CC(C)[C@H](C(=O)Nc1ccc(C(=O)NO)cc1)c1ccccc1` [AR-42, (S)—N-hydroxy-4-(3-methyl-2-phenylbutanamido)benzamide]: the “cumulative survival (weight loss below 20% of starting weight)” value in the assay with C-26 tumor-bearing mice [1] came to 100%. In addition, the “serum IL-6 level” value with IL-6 worked out at 102 ± 38 pg/mL. Moreover, the “serum LIF level” value in assay [2] was 3.8 ± 1.6 pg/mL. Further, in the assay with C-26 tumor-bearing mice [3], the “enlarged spleens (splenomegaly) in tumor-bearing mice” value is “not improved” and the “loss of cardiac tissue mass in tumor-bearing mice” value is reported as “ameliorated”. Besides, in the assay on C-26 tumor-bearing mice [3] (50 mg/kg p.o. every other day from day 6, 15-day study), the “tumor growth relative to vehicle” value is listed as “did not alter tumor growth”. The “magnitude of the weight loss after deducting the mass of the tumors” value with C-26 tumor-bearing mice [3] (50 mg/kg p.o. every other day from day 6, study endpoint day 15, vehicle group >20%) worked out at 6%. Further, in the assay on C-26 tumor-bearing mice [3] (day 15, tumor-bearing/vehicle 10.5%), the “reduction of tibialis anterior weight relative to tumor-free control mice” value is 0.8%. In addition, the “reduction of quadriceps weight relative to tumor-free control mice” value in the assay on C-26 tumor-bearing mice [3] (day 15, tumor-bearing/vehicle 18.1%) came out at 5.8%. In addition, the “reduction of gastrocnemius weight relative to tumor-free control mice” value with C-26 tumor-bearing mice [3] (day 15, tumor-bearing/vehicle 20.6%) is reported as 9.6%. Further, the “loss of adipose tissue mass in tumor-bearing mice” value in the assay with C-26 tumor-bearing mice [3] (restored to a level comparable to tumor-free/AR-42 mice) is on record as “restored the loss of adipose tissue mass”. In the assay with C-26 tumor-bearing mice [4] (setting [6]), the “loss of body weight (tumor excluded) by day 17, treatment starting at day 6” value turned out to be 6%; the “loss of body weight (tumor excluded) by day 17, treatment starting at day 10” value is 11%; the “loss of body weight (tumor excluded) by day 17, treatment starting at day 12” value turned out to be 12%. Also, in the assay on C-26 tumor-bearing mice [4] (treatment from day 6, 10 or 12), the “effect on tumor growth, delayed treatment experiment” value is listed as “without appreciable effects”. For the same molecule, in assay [5], the “cachectic phenotype of free amino acids and amino acid metabolites” value is listed as “reversed”; the “glycogen metabolic intermediates (short-chain malto-oligosaccharides, glucose 1-phosphate)” value is given as “significantly replenished”. In assay [5] (lowered in cachectic muscle), the “intramuscular levels of glucose and key glycolytic intermediates” value is reported as “reversed these metabolic changes”. The “2-hydroxybutyrate and ophthalmate levels in muscle” value in assay [5] (to levels comparable to tumor-free mice) is on record as “dramatically reduced”.

For the origin of these results see patent US11219607B2, “Methods for suppressing cancer-related cachexia” (Ohio State Innovation Foundation, priority 2013, dated 2022).
